Results: patent US9247759B2, “Identification of human T2R receptors that respond to bitter compounds that elicit the bitter taste in compositions, and the use thereof in assays to identify compounds that inhibit (block) bitter taste in compositions and use thereof” (SENOMYX, INC., priority 2007, dated 2016)
Like-named read-outs stand apart in the source and are kept apart here.

Target: hT2R8 (Homo sapiens (Human), UniProt Q9NYW2)
Assay: hT2R8 antagonist high-throughput FLIPR assay, stable cell line with G16g44, agonist andrographolide
Assay type: cell-based
Text: After a ligand is identified for a particular hT2R, a HEK293 cell line stably expressing both the hT2R and G16gust44 are generated, facilitating future screening assays to identify other ligands that activate the particular hT2R or which modulate (block or enhance) the activation of this hT2R by another bitter ligand such as a bitter compound contained in coffee. This avoids the need for transient transfection.
(§1) To identify antagonists, cell lines stably expressing hT2R8 and hT2R14, respectively, together with the promiscuous chimeric G16g44 protein were generated as described in previous patent applications. A high-throughput assay was established using the stable cell lines and FLIPR (Fluorescent Imaging Plate Reader). An agonist of hT2R8 or hT2R14 was used to activate the receptors up to 70-80% of their respective maximal activity. For hT2R8, the agonist used was andrographolide (200 λM); for hT2R14, it was aristolochic acid (3 μM). To identify antagonists, compounds with diverse chemical structures were added together with the agonist.
as §1, with “hT2R8” for “hT2R8 and hT2R14, respectively,”, “hT2R8” for “hT2R8 or hT2R14”, “(200” for “(200 λM); for hT2R14, it was aristolochic acid (3”

[1] = table after Example 12-37, read-out: hT2R8 IC50
[2] = read-out: IC50 on hT2R8 bitter receptor
[3] = table after Example 10-97, read-out: hT2R8 IC50
[4] = unit uM, read-out: IC50 on hT2R08 bitter receptor

Chain of hT2R8 (Q9NYW2 whole entry): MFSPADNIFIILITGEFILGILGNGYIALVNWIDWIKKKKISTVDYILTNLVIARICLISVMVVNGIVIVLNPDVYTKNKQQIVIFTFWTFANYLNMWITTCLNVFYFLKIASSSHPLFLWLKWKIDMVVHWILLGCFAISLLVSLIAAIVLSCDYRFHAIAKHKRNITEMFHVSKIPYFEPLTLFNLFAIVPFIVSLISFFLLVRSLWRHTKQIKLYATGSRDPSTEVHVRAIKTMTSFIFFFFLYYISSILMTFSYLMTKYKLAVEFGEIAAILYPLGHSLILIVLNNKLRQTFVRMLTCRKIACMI

Row | Compound | IC50 [2] | IC50 [3] | IC50 (Table A, read-out: hT2R8 IC50) | other results
1 | Cc1noc(C)c1Cn1cc(N2C(=O)N(Cc3cccc(C(F)(F)F)c3)C(C)(C)C2=O)cn1 [Example 12-84, 3-(1-((3,5-dimethylisoxazol-4-yl)methyl)-1H-pyrazol-4-yl)-5,5-dimethyl-1-(3-(trifluoromethyl)benzyl)imidazolidine-2,4-dione] | – | – | – | IC50 [1]: 1.54 µM
2 | Cc1noc(C)c1Cn1cc(N2C(=O)N(Cc3cccc(OCCN(C)C)c3)C(C)(C)C2=O)cn1 [Example 12-87, 1-(3-(2-(dimethylamino)ethoxy)benzyl)-3-(1-((3,5-dimethylisoxazol-4-yl)methyl)-1H-pyrazol-4-yl)-5,5-dimethylimidazolidine-2,4-dione] | – | – | – | IC50 [1]: 2.08 µM
3 | Cc1noc(C)c1Cn1cc(N2C(=O)N(Cc3cccc(OCCO)c3)C(C)(C)C2=O)cn1 [Example 12-63, 3-(1-((3,5-dimethylisoxazol-4-yl)methyl)-1H-pyrazol-4-yl)-1-(3-(2-hydroxyethoxy)benzyl)-5,5-dimethylimidazolidine-2,4-dione] | – | – | – | IC50 [1]: 0.28 µM
4 | COc1cccc(CN2C(=O)N(c3cnn(Cc4c(C)noc4C)c3)C(=O)C2(C)C)c1OC [Example 12-64, 1-(2,3-dimethoxybenzyl)-3-(1-((3,5-dimethylisoxazol-4-yl)methyl)-1H-pyrazol-4-yl)-5,5-dimethylimidazolidine-2,4-dione] | – | – | – | IC50 [1]: 0.3 µM
5 | Cc1cccc(C)c1CN1C(=O)N(c2cnn(Cc3c(C)noc3C)c2)C(=O)C1(C)C [Example 12-85, 1-(2,6-dimethylbenzyl)-3-(1-((3,5-dimethylisoxazol-4-yl)methyl)-1H-pyrazol-4-yl)-5,5-dimethylimidazolidine-2,4-dione] | – | – | – | IC50 [1]: 1.58 µM
6 | CNc1cnn(Cc2c(C)noc2C)c1 [Example 4-96, 1-((3,5-dimethylisoxazol-4-yl)methyl)-N-methyl-1H-pyrazol-4-amine] | – | – | 8.76 µM | –
7 | Cc1cc(C(=O)Nc2cnn(Cc3c(C)noc3C)c2)c(C)o1 [Example 4-53, N-(1-((3,5-dimethylisoxazol-4-yl)methyl)-1H-pyrazol-4-yl)-2,5-dimethylfuran-3-carboxamide] | – | – | 3.03 µM | –
8 | Cc1noc(C)c1Cn1cc(N(C)C(=O)C(C)c2ccccc2)cn1 (stereo not drawn) [Example 4-65, N-(1-((3,5-dimethylisoxazol-4-yl)methyl)-1H-pyrazol-4-yl)-N-methyl-2-phenylpropanamide] | – | – | 2.81 µM | –
9 | CNc1cnn(Cc2c(C)noc2C)c1 [Example 4-63, 1-((3,5-dimethylisoxazol-4-yl)methyl)-N-methyl-1H-pyrazol-4-amine] | – | – | 8.76 µM | –
10 | Cc1noc(C)c1Cn1cc(N2Cc3ccccc3C2=O)cn1 [Example 9-3, 2-(1-((3,5-dimethylisoxazol-4-yl)methyl)-1H-pyrazol-4-yl) isoindolin-1-One] | 11 µM | – | – | –
11 | Cc1ccccc1S(=O)(=O)Nc1cnn(Cc2c(C)noc2C)c1 [Example 4-102, N-(1-((3,5-dimethylisoxazol-4-yl)methyl)-1H-pyrazol-4-yl)-2-methylbenzenesulfonamide] | – | – | 2.15 µM | –
12 | Cc1noc(C)c1Cn1cc(NC(=S)Nc2ccccc2C#N)cn1 [Example 4-111, 1-(2-cyanophenyl)-3-(1-((3,5-dimethylisoxazol-4-yl)methyl)-1H-pyrazol-4-yl)thiourea] | – | – | 2.35 µM | –
13 | COc1cccc(F)c1CN1C(=O)N(c2cnn(Cc3c(C)noc3C)c2)C(=O)C1(C)C [Example 12-65, 3-(1-((3,5-dimethylisoxazol-4-yl)methyl)-1H-pyrazol-4-yl)-1-(2-fluoro-6-methoxybenzyl)-5,5-dimethylimidazolidine-2,4-dione] | – | – | – | IC50 [1]: 0.31 µM
14 | CO[C@@H](C(=O)Nc1cnn(Cc2c(C)noc2C)c1)c1ccccc1 [Example 4-68, (R)-N-(1-((3,5-dimethylisoxazol-4-yl)methyl)-1H-pyrazol-4-yl)-2-methoxy-2-phenylacetamide] | – | – | 5 µM | –
15 | Cc1noc(C)c1Cn1cc(N(C)C(=O)[C@@H](C)c2ccccc2)cn1 [Example 4-98, (S)-N-(1-((3,5-dimethylisoxazol-4-yl)methyl)-1H-pyrazol-4-yl)-N-methyl-2-phenylpropanamide] | – | – | 2.81 µM | –
16 | Cc1noc(C)c1Cn1cc(N2C(=O)CN(Cc3cccc(F)c3)C2=O)cn1 [Example 10-27, 3-(1-((3,5-dimethylisoxazol-4-yl)methyl)-1H-pyrazol-4-yl)-1-(3-fluorobenzyl)imidazolidine-2,4-dione] | – | 0.058 µM | – | IC50 [4]: 0.06 µM
17 | Cc1noc(C)c1Cn1cc(N2C(=O)N(Cc3ccc(O)cc3)C(C)(C)C2=O)cn1 [Example 12-38, 3-(1-((3,5-dimethylisoxazol-4-yl)methyl)-1H-pyrazol-4-yl)-1-(4-hydroxybenzyl)-5,5-dimethylimidazolidine-2,4-dione] | – | – | – | IC50 [1]: 0.07 µM
18 | Cc1noc(C)c1Cn1cc(NC(=O)c2cccn2C)cn1 [Example 4-49, N-(1-((3,5-dimethylisoxazol-4-yl)methyl)-1H-pyrazol-4-yl)-1-methyl-1H-pyrrole-2-carboxamide] | – | – | 3.4 µM | –
19 | Cc1nc2cc(C(=O)Nc3cnn(Cc4c(C)noc4C)c3)ccc2[nH]1 [Example 4-79, N-(1-((3,5-dimethylisoxazol-4-yl)methyl)-1H-pyrazol-4-yl)-2-methyl-1H-benzo[d]imidazole-5-carboxamide] | – | – | 1 µM | –
20 | COc1cc(CC(=O)Nc2cnn(Cc3c(C)noc3C)c2)ccc1O [Example 4-69, N-(1-((3,5-dimethylisoxazol-4-yl)methyl)-1H-pyrazol-4-yl)-2-(4-hydroxy-3-methoxyphenyl)acetamide] | – | – | 4.7 µM | –
21 | Cc1noc(C)c1Cn1cc(NC(=O)/C=C/c2ccccc2)cn1 [Example 4-15, N-(1-((3,5-dimethylisoxazol-4-yl)methyl)-1H-pyrazol-4-yl)cinnamamide] | 0.7 µM | – | – | –

Now from value to compound, other results behind:

Row | IC50 [2] | IC50 [3] | IC50 (Table A, read-out: hT2R8 IC50) | Compound | other results
22 | 0.26 µM | 0.137 µM | – | COc1ccc(CCN2CC(=O)N(c3cnn(Cc4c(C)noc4C)c3)C2=O)cc1OC [Example 10-87, 1-(3,4-dimethoxyphenethyl)-3-(1-((3,5-dimethylisoxazol-4-yl)methyl)-1H-pyrazol-4-yl)imidazolidine-2,4-dione] | –
23 | 0.16 µM | 0.158 µM | – | COc1cccc(CCN2CC(=O)N(c3cnn(Cc4c(C)noc4C)c3)C2=O)c1 [Example 10-85, 3-(1-((3,5-dimethylisoxazol-4-yl)methyl)-1H-pyrazol-4-yl)-1-(3-methoxyphenethyl)imidazolidine-2,4-dione] | –
24 | 1 µM | 0.912 µM | – | Cc1noc(C)c1Cn1cc(N2C(=O)NC(CC(C)C)C2=O)cn1 (stereo not drawn) [Example 10-61, 3-(1-((3,5-dimethylisoxazol-4-yl)methyl)-1H-pyrazol-4-yl)-5-isobutylimidazolidine-2,4-dione] | –
25 | – | 0.322 µM | – | Cc1noc(C)c1Cn1cc(N2C(=O)CN(Cc3cccc(CO)c3)C2=O)cn1 [Example 10-33, 3-(1-((3,5-dimethylisoxazol-4-yl)methyl)-1H-pyrazol-4-yl)-1-(3-(hydroxymethyl)benzyl)imidazolidine-2,4-dione] | IC50 [4]: 0.3 µM
26 | 1.27 µM | 0.927 µM | – | Cc1noc(C)c1Cn1cc(N2C(=O)CN(CCc3cccc4ccccc34)C2=O)cn1 [Example 10-80] | –
27 | 0.41 µM | 0.412 µM | – | Cc1noc(C)c1Cn1cc(N2C(=O)CN(CCc3ccc(O)cc3)C2=O)cn1 [Example 10-86, 3-(1-((3,5-dimethylisoxazol-4-yl)methyl)-1H-pyrazol-4-yl)-1-(4-hydroxyphenethyl)imidazolidine-2,4-dione] | –
28 | – | 0.065 µM | – | Cc1ccc(CN2CC(=O)N(c3cnn(Cc4c(C)noc4C)c3)C2=O)cc1 [Example 10-30, 3-(1-((3,5-dimethylisoxazol-4-yl)methyl)-1H-pyrazol-4-yl)-1-(4-methylbenzyl)imidazolidine-2,4-dione] | IC50 [4]: 0.06 µM
29 | 0.02 µM | 0.02 µM | – | Cc1noc(C)c1Cn1cc(N2C(=O)C(C)N(Cc3ccccc3)C2=O)cn1 (stereo not drawn) [Example 10-43, 1-benzyl-3-(1-((3,5-dimethylisoxazol-4-yl)methyl)-1′-1-pyrazol-4-yl)-5-methylimidazolidine-2,4-dione] | –
30 | 0.6 µM | 0.707 µM | – | Cc1noc(C)c1Cn1cc(-n2c(=O)n(C)n(C)c2=O)cn1 [Example 10-69, 4-(1-((3,5-dimethylisoxazol-4-yl)methyl)-1H-pyrazol-4-yl)-1,2-dimethyl-1,2,4-triazolidine-3,5-dione] | –
31 | 0.07 µM | – | – | Cc1noc(C)c1Cn1cc(N2C(=O)N(Cc3cccc(O)c3)C3(CCCC3)C2=O)cn1 [Example 12-5, 3-(1-((3,5-dimethylisoxazol-4-yl)methyl)-1H-pyrazol-4-yl)-1-(3-hydroxybenzyl)-1,3-diazaspiro[4.4]nonane-2,4-dione] | –
32 | 0.58 µM | 0.966 µM | – | Cc1noc(C)c1Cn1cc(N2C(=O)CN(C)C2=O)cn1 [Example 10-51, 3-(1-((3,5-dimethylisoxazol-4-yl)methyl)-1H-pyrazol-4-yl)-1-methylimidazolidine-2,4-dione] | –
33 | 0.04 µM | 0.044 µM | – | COc1ccc(CCN2CC(=O)N(c3cnn(Cc4c(C)noc4C)c3)C2=O)cc1 [Example 10-79, 3-(1-((3,5-dimethylisoxazol-4-yl)methyl)-1H-pyrazol-4-yl)-1-(4-methoxyphenethyl)imidazolidine-2,4-dione] | –
